These are literature values, as cited in patent US20240423197A1, “KIT FOR PREPARING HERBICIDAL APPLICATION MIXTURES” (BAYER CROPSCIENCE LP, priority 2021, published 2024).

The conditions of this series: known HLB value predetermined based on estimation by Griffin's method.

As for Sorbitan monooleate [Span® 80], the HLB is listed as 4.3.
With “Polysorbate 80 (polyoxyethylene sorbitan monooleate) [Tween® 80]”, the HLB is recorded as 15.
